Experiment [1] deals with T1, DU4475 human breast carcinoma cells (Homo sapiens, UniProt P17948).
T1 construct: host or cells: DU4475 human breast carcinoma cells
Briefly: Flow cytometry analysis, DU4475 cells. It counts as binding. Conditions: FIG. 8B. The method, then: Aliquots of 10^6PAE-VEGFR-I cells were harvested from subconfluent cultures and incubated with anti-VEGFR-I antibody clones 6F9, 13G12, F11, and 18F1 in PBS with 1% bovine serum albumin (BSA) and 0.02% sodium azide (staining buffer) for one hour on ice. Aliquots of 10^6DU4475 human breast carcinoma cells were harvested from subconfluent cultures and incubated with anti-VEGFR-1 antibody clone 18F1 in PBS with 1% bovine serum albumin (BSA) and 0.02% sodium azide (staining buffer) for one hour on ice. A matched IgG isotype (Jackson ImmunoResearch, West Grove, Pa.) was used as a negative control. Cells were washed twice with flow buffer and then incubated with a fluorescein isothiocyanate (FITC)-labeled goat anti-human IgG antibody (BioSource International, Camarillo, Calif.) in staining buffer for 30 minutes on ice. Cells were washed as above and analyzed on an Epics XL flow cytometer (Beckman-Coulter, Hialeah, Fla.). Dead cells and debris were eliminated from the analysis on the basis of forward and sideways light scatter. The mean fluorescent intensity units (MFRJ) were calculated as the mean log fluorescence multiplied by the percentage of positive population.
For orientation: In flow cytometry, cells or beads pass a laser one at a time.

In another experiment the target is VEGFR-I (Homo sapiens, UniProt P17948). Briefly: VEGFR-I phosphorylation assay, PAE-VEGFR-I cells. It counts as cell-based. Also noted: host or cells: porcine aorta endothelial (PAE) cells. Conditions: PAE-VEGFR-I transfectant, compared to untreated control, FIG. 10. The procedure: Confluent porcine aorta endothelial VEGFR-I expressing (PAE-VEGFR-I) cells and BT474 human breast carcinoma cells were cultured in serum-depleted F12 medium for 48 hours. The cells were then preincubated with anti-VEGFR-I antibody clone 18F1 at concentrations ranging from 0.1 to 30 μg/ml for 1 hour followed by stimulating with VEGF or PlGF for 5 minutes at 37° C. The cells were then rinsed with ice-cold PBS and lysed in lysis buffer (50 mM HEPES, 150 mM NaCl, 1% Triton X-100, and 10% glycerol containing 1 mM phenylmethylsulfonyl fluoride, 10 μg/ml aprotinin, 10 μg/ml leupeptin, and 1 mM sodium vanadate). Cell lysates were subjected to SDS-PAGE and transferred onto Immobilon membranes (Millipore Corp. Billerica, Mass.). […]
Autophosphorylation of the VEGFR-I induced by its ligands and resulting activation of a classical MAPK, extracellular signal-regulated protein kinases 1Z2 (ERK1Z2) and the PBK/Atk downstrean signaling pathways mediate cellular biological responses such as proliferation, motility, survival, and differentiation. The ability of an anti-VEGFR-1 antibody to inhibit phosphorylation of VEGFR-I and activation of ERK1 Z2 and the Akt kinases downstream signaling were determined by using the PAE-VEGFR-I transfectant and BT474 breast carcinoma cells. […]

A further experiment concerns MDA-MB-231 xenografts. Briefly: Immunohistochemistry and TUNEL of MDA-MB-231 xenografts. Type of experiment: in vivo, mouse. The procedure: Paraffin-embedded MDA-MB-231 xenografts were evaluated immunohistochemically for markers of tumor cell proliferation, survival, and apoptosis. Markers of proliferation and survival included Ki-67 (rabbit pAb; Lab Vision Corporation, Fremont, Calif.), phospho-specific p44/42 MAPK (Thr202/Tyr204) (rabbit pAb; Cell Signaling Technology) and phospho-specific Akt (Ser473) (rabbit pAb; Cell Signaling Technology). The EnVision+ System for rabbit antibodies (DAKO Cytomation, Carpenteria, Calif.) was used with 3,3′ diaminobenzidine (DAB) as the chromagen, per kit instructions. After brief counterstaining in Mayer's hematoxylin all sections were dehydrated, cleared and coverslipped using a permanent mounting medium. Tumor apoptosis was assessed by TUNEL assay using ApopTag® Peroxidase In Situ Apoptosis Detection Kit (Chemicon, Temecula, Calif.) per kit instructions. Stained sections were coverslipped with Gelmount (Biomeda, Foster City, Calif.). Positive immunostaining and TUNEL positive […] were analyzed and imaged using an Axioskop light microscope with an Axiocam digital camera (Carl Zeiss, Germany).

For experiment [2], the target named is T2, recombinant human VEGFR-I Fc (Homo sapiens, UniProt P17948).
T2 construct: soluble recombinant VEGFR-I Fc (rhuVEGFR-1 Fc) proteins were purchased from (R&D Systems Inc); purchased R&D Systems Inc
Nature of the experiment: ELISA-based specificity assay (Example 2A). It counts as binding. Conditions: FIG. 6A. The procedure:
To determine the specificity of an anti-VEGFR-1 monoclonal antibody to human VEGFR-I, purified antibodies 18F1 were tested in an ELISA-based assay. One μg/ml of recombinant human VEGFR-I Fc, mouse VEGFR-I Fc, mouse VEGFR-2 Fe, or human VEGFR-2 alkaline phosphatase was coated with PBS in a 96-well microtiter plates at 4° C. over night. After wash, the receptor coated plates were blocked with PBS containing 5% Dry Milk and 0.05% Tween 20. Serial dilutions of primary antibody 18F1 to human VEGFR-I, MF1 to mouse VEGFR-I. ICl 1 to human VEGFR-2, or DClOl to mouse VEGFR-2 were incubated in the receptor-coated plates for 30 minutes. After wash secondary anti-primary HRP conjugate antibodies was incubated in the plates for 30 minutes. Plates were washed and incubated with the substrate TMB (3,3′,5,5′-tetra-methylbenzidine) for color development. The absorbance at 450 nm was read as OD values for quantification of binding activity of antibodies. Data were analyzed using a GraphPad Prism Software.
Background: An ELISA detects its analyte on a solid surface through an enzyme-linked reagent.

Where [3] appears, read: after 1 week, 0.5 mg/dose M-W-F.
The mark [4] stands for this setting: after 14 days, 20 mg/kg 2x/week.

“Also recorded” adds a separate entry of the source.

Chain of VEGFR-I (P17948 27-1338): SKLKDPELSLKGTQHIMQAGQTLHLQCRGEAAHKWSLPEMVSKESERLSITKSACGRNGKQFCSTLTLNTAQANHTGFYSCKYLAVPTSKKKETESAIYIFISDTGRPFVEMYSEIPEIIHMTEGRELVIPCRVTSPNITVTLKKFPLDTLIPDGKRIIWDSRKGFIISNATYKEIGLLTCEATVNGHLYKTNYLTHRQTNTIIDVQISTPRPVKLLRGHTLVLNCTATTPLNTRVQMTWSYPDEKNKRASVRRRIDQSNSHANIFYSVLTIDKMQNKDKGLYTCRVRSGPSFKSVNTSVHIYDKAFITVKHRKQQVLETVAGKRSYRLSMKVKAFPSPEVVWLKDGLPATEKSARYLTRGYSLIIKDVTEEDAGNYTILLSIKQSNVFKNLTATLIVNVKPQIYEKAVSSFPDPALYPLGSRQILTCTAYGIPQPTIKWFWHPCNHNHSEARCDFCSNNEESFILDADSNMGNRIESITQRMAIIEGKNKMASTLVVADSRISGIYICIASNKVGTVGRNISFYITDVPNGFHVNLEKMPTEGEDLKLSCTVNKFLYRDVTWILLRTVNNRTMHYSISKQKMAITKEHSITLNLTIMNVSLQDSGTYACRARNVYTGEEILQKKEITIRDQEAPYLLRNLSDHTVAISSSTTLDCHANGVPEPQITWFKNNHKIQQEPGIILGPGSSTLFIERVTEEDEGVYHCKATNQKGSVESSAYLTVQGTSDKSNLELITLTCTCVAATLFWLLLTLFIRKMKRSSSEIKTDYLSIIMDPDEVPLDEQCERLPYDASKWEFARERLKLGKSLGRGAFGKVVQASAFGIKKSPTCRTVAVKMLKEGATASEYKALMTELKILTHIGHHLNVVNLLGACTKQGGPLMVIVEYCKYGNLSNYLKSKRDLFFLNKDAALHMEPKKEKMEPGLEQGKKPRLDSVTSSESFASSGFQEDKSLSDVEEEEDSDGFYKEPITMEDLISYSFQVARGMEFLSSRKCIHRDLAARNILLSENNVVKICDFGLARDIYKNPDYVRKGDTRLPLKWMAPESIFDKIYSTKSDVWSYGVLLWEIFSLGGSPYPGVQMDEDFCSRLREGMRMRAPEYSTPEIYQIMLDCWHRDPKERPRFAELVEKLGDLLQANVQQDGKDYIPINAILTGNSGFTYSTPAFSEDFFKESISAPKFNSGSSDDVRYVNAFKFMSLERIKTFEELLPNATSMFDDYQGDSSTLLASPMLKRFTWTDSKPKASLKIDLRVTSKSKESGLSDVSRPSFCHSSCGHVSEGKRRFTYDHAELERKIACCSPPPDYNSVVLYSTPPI
T2 sequence (P17948 27-758 limits assumed): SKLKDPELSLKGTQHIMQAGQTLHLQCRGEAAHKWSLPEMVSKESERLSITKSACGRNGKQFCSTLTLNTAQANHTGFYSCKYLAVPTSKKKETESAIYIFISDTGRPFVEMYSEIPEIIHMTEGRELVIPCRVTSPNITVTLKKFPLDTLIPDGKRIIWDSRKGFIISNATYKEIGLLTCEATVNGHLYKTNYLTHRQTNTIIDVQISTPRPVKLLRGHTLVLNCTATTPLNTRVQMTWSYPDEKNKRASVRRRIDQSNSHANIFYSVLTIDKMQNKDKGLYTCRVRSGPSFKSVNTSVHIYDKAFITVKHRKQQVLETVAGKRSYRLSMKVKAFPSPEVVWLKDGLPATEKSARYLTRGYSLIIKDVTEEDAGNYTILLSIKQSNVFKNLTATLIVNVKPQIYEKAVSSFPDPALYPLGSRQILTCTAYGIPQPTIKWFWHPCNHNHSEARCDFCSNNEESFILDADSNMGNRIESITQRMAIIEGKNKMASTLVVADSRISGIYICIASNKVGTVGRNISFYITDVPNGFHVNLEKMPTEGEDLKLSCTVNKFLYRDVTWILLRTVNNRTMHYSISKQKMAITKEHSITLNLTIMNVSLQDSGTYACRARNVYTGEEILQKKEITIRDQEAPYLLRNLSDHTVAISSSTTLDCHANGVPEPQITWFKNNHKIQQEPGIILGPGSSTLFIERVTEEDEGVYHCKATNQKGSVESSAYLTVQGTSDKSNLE
T1 sequence (P17948 27-1338): as the sequence (P17948 27-1338) above

Consider “18F1: human anti-VEGFR-1 monoclonal antibody clone; VL SEQ ID NO: 16, VH SEQ ID NO: 20 [Clone 18F1]”, for which, in experiment [1], the “binding reactivity with DU4475 human breast carcinoma” value is “binding reactivity”. Besides, the “PlGF-stimulated phosphorylation of VEGFR-I” value with VEGFR-I is listed as “significantly reduced; also recorded: reduction”. Moreover, in the experiment with MDA-MB-231 xenografts (setting [3]), the Akt phosphorylation entry was “significant decrease” and the “apoptosis as measured by TUNEL positive events” value is listed as “increase”. For the same substance, in the experiment with MDA-MB-231 xenografts (setting [4]), the “activation of MAPK” value is given as “marked decrease” and the “marker for proliferating cells (Ki-67)” value is given as “significantly reduced”. The “binding specificity to human VEGFR-I” value in experiment [2] is “binding of human VEGFR-I”.

For the origin of these results see patent US8143025B2, “Antibodies against vascular endothelial growth factor receptor-1” (ImClone LLC, priority 2004, dated 2012).
